Patent publication EP4678638A1, “NEW E3 UBIQUITIN LIGASE LIGAND, PROTEIN DEGRADATION AGENT AND USE THEREOF” (priority 2023, dated 2024)
Read-outs that look alike come from different tables or passages of the source.

Columns and labels:
[1] = system: H1975-1µM Osimertinib cells; assay: CCK-8 proliferation, osimertinib-resistant H1975 cells; assay type: cell-based, Human; settings: Homo sapiens, NCI-H1975; CCK-8; osimertinib-resistant H1975 cells obtained by treating H1975 cells with 1 µM Osimertinib for 3 months; read-out: Inhibitory activity (IC50) on tumor cell proliferation, H1975-1µm Osimertinib
Method: (§1) The tumor cells used herein were cultured in a cell culture medium listed in table A1 at 37°C in an incubator with 5% CO2. Prior to experimentation, all cell lines used were correctly identified by STR profiling, and tested negative for mycoplasma contamination using a mycoplasma detection kit through routine screenings. Table A1. Tumor cells and cell culture medium used in the present disclosure
(§2) IC50 values of the compounds of the present disclosure (including the compounds in Table 1, and compounds of examples) were measured using the Meilun Cell Counting Kit-8 kit from Dalian Meilun Biotech Co., Ltd. Assay details are as follows: tumor cells were seeded in a 96-well plate at a density listed in Table A2. After 24h, 100 µL of the inoculated cells were treated with 0.5µL of the compounds of the present disclosure (including the compounds in Tables 1 and 2, and compounds of examples) at 10 different successively decreasing concentrations (starting at the highest concentration of 10µM; 5-fold serial dilutions). After the cells were treated with the compounds of the present disclosure for a period of time, the cell viability detection reagent was added to the culture medium for cell viability assessment according to the instructions provided with the CCK-8 kit. […] The growth inhibition of the compounds of the present disclosure on cells was plotted by Prism Graphpad software, and the IC50 values of the compounds of the present disclosure were calculated therefrom. […] Seeding protocol and treatment time for tumor cells

[2] = system: PC-9; assay: CCK-8 proliferation, PC-9; assay type: cell-based, Human; settings: Homo sapiens, PC-9; CCK-8; 96 hours; read-out: Inhibitory activity (IC50) on tumor cell proliferation, PC-9
Procedure, shortened: (§3)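 Cells seeded, then after 24 h treated with 10 concentrations (top 10 µM, 5-fold serial dilution) for a line-specific time at 37°C, 5% CO2. Viability read by CCK-8; IC50 fitted from growth-inhibition curves.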

[3] = system: EGFR; assay: Western blot degradation of EGFR (H1975 Cell); assay type: cell-based, Human; settings: Table D2
Procedure, shortened: (§4)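 Quantification by ImageJ densitometry of Western blot bands: DC50 is the fitted concentration halving band intensity relative to DMSO. Percent remaining uses internal-control normalization, and degradation rate is its complement.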

[4] = system: H1975; assay: CCK-8 proliferation, NCI-H1975 (H1975); assay type: cell-based, Human; settings: Homo sapiens, NCI-H1975; CCK-8; 96 hours; read-out: Inhibitory activity (IC50) on tumor cell proliferation, H1975
Procedure, shortened: as §3

[5] = system: MGC-803; assay: CCK-8 proliferation, MGC-803 (heads: MGC80-3, MGC803); assay type: cell-based, Human; settings: Homo sapiens, MGC-803
Method: as §1, §2

[6] = system: SR; assay: CCK-8 proliferation, SR; assay type: cell-based, Human; settings: Homo sapiens; Table B10, compounds designed based on the IRAK4 inhibitors; SR cells; read-out: Inhibitory activity (IC50, nM) on tumor cell proliferation, SR
Procedure, shortened: as §3

[7] = biological target: T1, IRAK4 (Homo sapiens, UniProt Q9NWZ3); assay: Western blot degradation of IRAK4 (hPBMC); assay type: cell-based; settings: Table D1
T1 construct: evaluate the effects of the compounds of the present disclosure on the expression of target proteins in cells; endogenous in cells; host or cells: hPBMC
T1 sequence (Q9NWZ3 1-460): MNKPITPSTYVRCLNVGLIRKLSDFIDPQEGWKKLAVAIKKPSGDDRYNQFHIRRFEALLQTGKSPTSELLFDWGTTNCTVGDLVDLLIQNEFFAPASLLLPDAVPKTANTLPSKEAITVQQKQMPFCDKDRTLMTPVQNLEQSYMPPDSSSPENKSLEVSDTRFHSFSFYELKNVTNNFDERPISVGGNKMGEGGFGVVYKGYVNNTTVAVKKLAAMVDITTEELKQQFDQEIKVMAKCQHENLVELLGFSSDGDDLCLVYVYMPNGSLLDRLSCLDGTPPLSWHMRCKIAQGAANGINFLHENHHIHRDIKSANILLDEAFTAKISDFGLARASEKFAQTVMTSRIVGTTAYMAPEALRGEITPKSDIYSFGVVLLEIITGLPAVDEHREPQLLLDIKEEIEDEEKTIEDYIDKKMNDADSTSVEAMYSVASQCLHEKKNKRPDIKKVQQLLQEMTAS
Procedure, shortened: as §4

[8] = system: MM.1S; assay: CCK-8 proliferation, MM.1S; assay type: cell-based; settings: Homo sapiens, MM1.S; Table B10, compounds designed based on the IRAK4 inhibitors; MM.1S cells; read-out: Inhibitory activity (IC50, nM) on tumor cell proliferation, MM.1S
Procedure, shortened: as §3

[9] = system: Jurkat; assay: CCK-8 proliferation, Jurkat; assay type: cell-based, Human; settings: Homo sapiens; Table B10, compounds designed based on the IRAK4 inhibitors; Jurkat cells; read-out: Inhibitory activity (IC50, nM) on tumor cell proliferation, Jurkat
Procedure, shortened: as §3

[10] = system: SW620; assay: CCK-8 proliferation, SW620; assay type: cell-based; settings: Homo sapiens, SW-620; CCK-8; 96 hours; read-out: Inhibitory activity (IC50) on tumor cell proliferation, SW620
Method: as §1, §2

| IC50 [1] [nM] | IC50 [4] [nM] | Structure (SMILES) | Degradation of substrate protein EGFR (substrate protein remaining %) [3] | further results |
| --- | --- | --- | --- | --- |
| 500 to 1000 | – | CC(C)n1nc(N2CCC(N3CCN(Cc4cccc(N5CCC(=O)NC5=O)c4)CC3)CC2)c2cnc(Nc3ccnc(-c4cnn(S(=O)(=O)C5CC5)c4)n3)cc21 [GT-06080, 1-(3-((4-(1-(6-((2-(1-(cyclopropylsulfonyl)-1H-pyrazol-4-yl)pyrimidin-4-yl)amino)-1-isopropyl-1H-pyrazolo[4,3-c]pyridin-3-yl)piperidin-4-yl)piperazin-1-yl)methyl)phenyl)dihydropyr imidine-2,4(1H,3H)-dione] | – | IC50 [2]: 500 to 1000 nM |
| 50 to 100 | 10 to 50 | O=C1CCC(Nc2cccc(CN3CCN(C4CCN(c5ccc(-c6cc(F)c7c(c6)C(=O)N(C(C(=O)Nc6nccs6)c6ncn8c6CCC8)C7)cc5)CC4)CC3)c2)C(=O)N1 (centres unmarked) [GT-06247, 2-(6,7-dihydro-5H-pyrrolo[1,2-c]imidazol-1-yl)-2-(6-(4-(4-(4-(3-((2,6-dioxopiperidin-3-yl)amino)benzyl)piperazin-1-yl)piperidin-1-yl)phenyl)-4-fluoro-1-oxoisoindolin-2-yl)-N-(thiazol-2-yl)acetamide] | A (A is defined as 0% ≤ substrate protein remaining % ≤ 80%) | – |
| 500 to 1000 | 1 to 10 | CN(Cc1cccc(NC2CCC(=O)NC2=O)c1)C1CCN(c2ccc(-c3cc(F)c4c(c3)C(=O)N(C(C(=O)Nc3nccs3)c3ncn5c3CCC5)C4)cc2)CC1 (centres unmarked) [GT-05284, 2-(6,7-dihydro-5H-pyrrolo[1,2-c]imidazol-1-yl)-2-(6-(4-(4-((3-((2,6-dioxopiperidin-3-yl)amino)benzyl)(methyl)amino)piperidin-1-yl)phenyl)-4-fluoro-1-oxoisoindolin-2-yl)-N-(thiazol-2-yl)acetamide] | A (A is defined as 0% ≤ substrate protein remaining % ≤ 80%) | – |
| 100 to 500 | 1 to 10 | O=C1CCN(c2ccc(CN3C[C@H]4C[C@@H]3CN4c3ccc(-c4cc(F)c5c(c4)C(=O)N(C(C(=O)Nc4nccs4)c4ncn6c4CCC6)C5)cc3)nc2)C(=O)N1 (stereo partly drawn) [GT-06190, 2-(6,7-dihydro-5H-pyrrolo[1,2-c]imidazol-1-yl)-2-(6-(4-((1R,4R)-5-((5-(2,4-dioxotetrahydropyrimidin-1(2H)-yl)pyridin-2-yl)methyl)-2,5-diazabicyclo[2.2.1]heptan-2-yl)phenyl)-4-fluoro-1-oxoisoindolin-2-yl)-N-(thiazol-2-yl)acetamide] | A (A is defined as 0% ≤ substrate protein remaining % ≤ 80%) | – |
| 500 to 1000 | 1 to 10 | O=C1CCN(c2ccc(CN3CCN(C4CCN(c5ccc(-c6cc(F)c7c(c6)C(=O)N(C(C(=O)Nc6nccs6)c6ncn8c6CCC8)C7)cc5)CC4(F)F)CC3)cn2)C(=O)N1 (centres unmarked) [GT-06320, 2-(6,7-dihydro-5H-pyrrolo[1,2-c]imidazol-1-yl)-2-(6-(4-(4-(4-((6-(2,4-dioxotetrahydropyrimidin-1(2H)-yl)pyridin-3-yl)methyl)piperazin-1-yl)-3,3-difluoropiperidin-1-yl)phenyl)-4-fluoro-1-oxoisoindolin-2-yl)-N-(thiazol-2-yl)acetamide] | A (A is defined as 0% ≤ substrate protein remaining % ≤ 80%) | – |
| < 1 | 1 to 10 | O=C1CCC(Nc2cccc(CN3CCN(c4ccc(-c5cc(F)c6c(c5)C(=O)N(C(C(=O)Nc5nccs5)c5ncn7c5CCC7)C6)cc4)CC3)c2)C(=O)N1 (centres unmarked) [GT-06188, 2-(6,7-dihydro-5H-pyrrolo[1,2-c]imidazol-1-yl)-2-(6-(4-(4-(3-((2,6-dioxopiperidin-3-yl)amino)benzyl)piperazin-1-yl)phenyl)-4-fluoro-1-oxoisoindolin-2-yl)-N-(thiazol-2-yl)acetamide] | – | – |
| 1 to 10 | – | COC1CCN(c2nccc(Nc3cc4c(cn3)c(N3CCN(Cc5ccc(N6CCC(=O)NC6=O)cc5)CC3)nn4C(C)C)n2)CC1 [GT-06037, 1-(4-((4-(1-isopropyl-6-((2-(4-methoxypiperidin-1-yl)pyrimidin-4-yl)amino)-1H-pyrazolo[4,3-c]pyridin-3-yl)piperazin-1-yl)methyl)phenyl)dihydropyr imidine-2,4(1H,3H)-dione] | – | – |

More lines, now with the values behind:

| Structure (SMILES) | IC50 [1] [nM] | IC50 [4] [nM] | Degradation of substrate protein EGFR (substrate protein remaining %) [3] | further results |
| --- | --- | --- | --- | --- |
| O=C1CCN(c2cccc(CN3CCC(N4CCN(c5ccc6c(c5)nc(NC(=O)c5cccc(C(F)(F)F)c5)n6[C@H]5CC[C@@H](CO)CC5)CC4)CC3)c2)C(=O)N1 [GT-05022, N-(5-(4-(1-(3-(2,4-dioxotetrahydropyrimidin-1(2H)-yl)benzyl)piperidin-4-yl)piperazin-1-yl)-1-((1s,4s)-4-(hydroxymethyl)cyclohexyl) -1H-benzo[d]imidazol-2-yl)-3-(trifluoromethyl)benzamide] | – | – | – | IC50 ([5]; Table B10, compounds designed based on the IRAK4 inhibitors, MGC803 cells, read-out: Inhibitory activity (IC50, nM) on tumor cell proliferation, MGC803): 500 to 1000 nM; IC50 [6]: 500 to 1000 nM; Degradation of substrate protein IRAK4 (substrate protein remaining %) [7]: A (A is defined as 0% ≤ substrate protein remaining % ≤ 80%); IC50 [8]: 500 to 1000 nM; IC50 [9]: 500 to 1000 nM |
| CC(C)n1nc(N2CCC(N3CCN(Cc4ccc(N5CCC(=O)NC5=O)nc4)CC3)CC2)c2cnc(Nc3ccnc(-c4cnn(S(=O)(=O)C5CC5)c4)n3)cc21 [GT-06082, 1-(5-((4-(1-(6-((2-(1-(cyclopropylsulfonyl)-1H-pyrazol-4-yl)pyrimidin-4-yl)amino)-1-isopropyl-1H-pyrazolo[4,3-c]pyridin-3-yl)piperidin-4-yl)piperazin-1-yl)methyl)pyridin-2-yl)dihydropyrimidine-2,4(1H,3H)-dione] | 10 to 50 | 100 to 500 | – | IC50 [2]: 100 to 500 nM |
| CCC(=C(c1ccc(O)cc1)c1ccc(N2CCN(Cc3ccc(C4CCC(=O)NC4=O)c(F)c3)CC2)cc1)c1ccc(O)cc1 (centres unmarked) [GT-04150, 3-(4-((4-(4-(1,2-bis(4-hydroxyphenyl)but-1-en-1-yl)phenyl)piperazin-1-yl)methyl)-2-fluorophenyl)piperidine-2,6-dione] | – | – | – | IC50 ([5]; CCK-8, 72 hours, read-out: Inhibitory activity (IC50) on tumor cell proliferation, MGC80-3): > 10000 nM; IC50 [10]: < 1 nM |
| CC(C)n1nc(N2CCC(N3CCN(Cc4ccc(C5CCC(=O)NC5=O)cc4)CC3)CC2)c2cnc(Nc3ccnc(-c4cnn(S(=O)(=O)C5CC5)c4)n3)cc21 (centres unmarked) [GT-06078, 3-(4-((4-(1-(6-((2-(1-(cyclopropylsulfonyl)-1H-pyrazol-4-yl)pyrimidin-4-yl)amino)-1-isopropyl-1H-pyrazolo[4,3-c]pyridin-3-yl)piperidin-4-yl)piperazin-1-yl)methyl)phenyl)piperidine-2,6-dione] | 100 to 500 | – | A (A is defined as 0% ≤ substrate protein remaining % ≤ 80%) | – |
